Assay: gradient 5% acetonitrile 3 min, to 50% in 2 min, to 85% in 15 min, held 3 min, 100 µL/min
Conditions: column: Zorbax Extend-C18 2.1 x 50 mm; eluents: water / acetonitrile, 0.1% formic acid
Outline: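 Pure standards were analyzed in mixtures of ~100 molecules using HPLC coupled to a quadrupole time-of-flight mass spectrometer, in both positive and negative ionization mode. Separation used a Zorbax Extend-C18 column (2.1 × 50 mm, 1.8 μm) at 100 μL/min, with water and acetonitrile each containing 0.1% formic acid. Dead and dwell volumes were 40 μL and 900 μL, and data were collected over 3 months. Retention time was read from computationally picked adduct peaks, each inspected manually.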

Compound `Cc1cc(NC(=O)C2CCN(c3cc(N4CCCC4)ncn3)CC2)ccc1F` has an RP-LC retention time of 693 s.

In the case of `O=C(CS(=O)(=O)c1cn(Cc2cccc(F)c2)c2ccccc12)Nc1ccc(F)cc1`, the RP-LC retention time is reported as 918 s.

Work on `CNC(=O)[C@@H]1CN(C(=O)Cn2nc(C(F)(F)F)cc2C)C[C@H]1c1n[nH]c(C)n1` yielded an RP-LC retention time of 618 s.

With `Cc1nnc(C2CC3(CCN(CCO)CC3)CN2CCc2ccccc2)o1` (configuration not stated) the RP-LC retention time was 574 s.

Compound `Cc1ccc(-c2cc3c(N4CCCC(C(=O)NCc5ccc6c(c5)OCO6)C4)nccn3n2)c(C)c1` (configuration not stated) has an RP-LC retention time of 938 s.

Work on `O=C(NCCn1c(=O)n(Cc2ccc(F)cc2)c2cccnc21)c1nccc2ccccc12` yielded an RP-LC retention time of 840 s.

For `COc1ccc(OC)c(S(=O)(=O)NC2CCCN(c3ccc(=O)n(C)n3)C2)c1` (configuration not stated), the RP-LC retention time was 702 s.

`CC(Oc1ccccc1)c1nc(-c2ccc3nnn(C)c3c2)no1` (configuration not stated) gave an RP-LC retention time of 1060 s.

In the case of `CCOc1ccc(OCC)c(NC(=O)C2CC(=O)N(c3cccc(NC(C)=O)c3)C2)c1` (configuration not stated), the RP-LC retention time is reported as 772 s.

`CC(=O)[C@@]1(O)CC[C@H]2[C@@H]3C[C@H](C)C4=CC(=O)C=C[C@]4(C)[C@@]3(F)[C@@H](O)C[C@@]21C` gave an RP-LC retention time of 844 s.

In the case of `CC(=O)c1cccc(NC(=O)CN(C)c2nc3c(F)cccc3s2)c1`, the RP-LC retention time is reported as 798 s.

Work on `Cc1ccc(-c2cc3c4nnc(SCC(=O)Nc5ccccc5Cl)n4ccn3n2)cc1C` yielded an RP-LC retention time of 1020 s.

For `CCOC(=O)c1noc2nc(C)nc(N3CCN(c4ccc(F)cc4)CC3)c12`, the RP-LC retention time was 1070 s.

In the case of `COc1cccc(C(=O)Nc2cccc(-c3nc4ncccc4o3)c2)c1`, the RP-LC retention time is reported as 781 s.

In the case of `CCn1c(=O)c(N2CCC(NC(=O)Nc3ccccc3Cl)CC2)nc2ccccc21`, the RP-LC retention time is reported as 1010 s.

`CCOc1ccccc1C(=O)N1CCc2c(c(-c3nc(C4CC4)no3)nn2C)C1` showed an RP-LC retention time of 828 s.

With `CC1CCN(c2ccc(-c3noc(CN(C)Cc4ccccc4)n3)cn2)CC1` the RP-LC retention time was 912 s.

With `O=C(Nc1ccccc1)c1c(O)c2cccnc2n(-c2ccc(F)cc2)c1=O` the RP-LC retention time was 1210 s.

With `Cc1ccc(-n2nc(N3CCCN(S(=O)(=O)c4ccccc4C)CC3)ccc2=O)cc1` the RP-LC retention time was 910 s.

For `CCc1noc(NC(C)=O)c1-c1ccc(C)c(S(=O)(=O)NCc2cccc(OC)c2)c1`, the RP-LC retention time was 807 s.

`CCOc1cccc(-c2noc(Cn3c(=O)n(-c4ccc(OC)cc4)c(=O)c4sccc43)n2)c1` showed an RP-LC retention time of 1000 s.

`CCc1nc2c(NC(=O)c3ccc(C)c(F)c3)cccn2n1` gave an RP-LC retention time of 850 s.

`Cc1ccc(-n2ccc(=O)c(-c3nc(-c4ccc(Br)cc4)no3)n2)cc1` gave an RP-LC retention time of 1030 s.

With `COc1ccccc1Nc1nc(-c2ccccc2)cs1` the RP-LC retention time was 1150 s.

For `O=C(NCc1ccco1)C1CN(C(=O)c2ccccc2)CC12CCCCC2` (configuration not stated), the RP-LC retention time was 795 s.

For `Cc1noc(COC2CCCN(C(=O)c3ccc4cc[nH]c4c3)C2)n1` (configuration not stated), the RP-LC retention time was 570 s.

Compound `Cc1ccc(N2CCC(NC(=O)c3cc(F)cc(F)c3)C2=O)cc1` (configuration not stated) has an RP-LC retention time of 858 s.

Compound `Cc1sc(C)c(S(=O)(=O)NCc2ccc3c(c2)OCO3)c1-c1cc(C(F)(F)F)on1` has an RP-LC retention time of 1120 s.

In the case of `COc1ccc(Cl)cc1NC(=O)NC1CCCCC1N1C(=O)CSC1=O` (configuration not stated), the RP-LC retention time is reported as 870 s.

Compound `COc1cc(Cl)c(C)cc1NC(=O)Cn1ncc2c(N3CCN(c4ccccn4)CC3)ncnc21` has an RP-LC retention time of 678 s.

For `CCCN(CCC)S(=O)(=O)c1ccc(C(=O)Nc2nc3c(s2)CCc2ccccc2-3)cc1`, the RP-LC retention time was 1310 s.

With `Cc1ccc(C(O)CN2CCN(c3ccccn3)CC2)cc1` (configuration not stated) the RP-LC retention time was 550 s.

`CCc1nc(OCC(=O)NCCCOC)c2c(-c3ccc(F)cc3)noc2n1` showed an RP-LC retention time of 890 s.

For `CCCN(C(=O)Nc1ccc(CC)cc1)c1nc(-c2ccc(C3CCCCC3)cc2)cs1`, the RP-LC retention time was 619 s.

Work on `CCCCNC(=O)C(CC)n1nc(C)c2nn(-c3ccccc3)c(C)c2c1=O` (configuration not stated) yielded an RP-LC retention time of 934 s.

For `O=C(NCCC1=CCCCC1)c1c(OCC2CC2)cc(=O)n2c1CCCCC2`, the RP-LC retention time was 887 s.

`CNC(=O)N1CCCC(c2cccc(C(=O)NCc3cc(OC)ccc3OC)c2)C1` (configuration not stated) showed an RP-LC retention time of 766 s.

Compound `Cc1ccc(S(=O)(=O)N2CC(C(=O)NC3CCCC3)Oc3ccc(C)cc32)cc1` (configuration not stated) has an RP-LC retention time of 1140 s.

Compound `COC(=O)C1=CN(c2ccc(F)cc2)c2ccc(F)cc2S1(=O)=O` has an RP-LC retention time of 847 s.

`O=C(O)c1ccc(OCCOc2ccccc2)cc1` gave an RP-LC retention time of 916 s.

Work on `COc1ccc(Cn2c(CO)cnc2SCC(=O)N2CCCc3ccccc32)cc1` yielded an RP-LC retention time of 702 s.

With `O=C(NC1CCN(c2cc(-c3ccc(Cl)cc3)[nH]n2)C1)c1ccc2[nH]ccc2c1` (configuration not stated) the RP-LC retention time was 742 s.

`Cc1cccc(Nc2c(-c3ccccc3)nc3ncccn23)c1C` showed an RP-LC retention time of 671 s.

`CN(C)CC1CCC2=C(C1=O)C(c1ccc(Cl)c(Cl)c1)C1=C(CCC(CN(C)C)C1=O)O2` (configuration not stated) gave an RP-LC retention time of 584 s.

In the case of `Cc1cc(C)c(S(=O)(=O)N2CCCC2c2nc(-c3ccccc3)no2)c(C)c1` (configuration not stated), the RP-LC retention time is reported as 1230 s.

`OC[C@@H]1CN(Cc2ccco2)C[C@H]1c1nc(-c2cccnc2)no1` showed an RP-LC retention time of 557 s.

`CC(C)n1c(=O)sc2cc(S(=O)(=O)N3CCC(C(=O)NCCc4cccs4)CC3)ccc21` gave an RP-LC retention time of 910 s.

Work on `COCc1nc2ccccc2n1CC(=O)N(c1ccccc1)C(C)C` yielded an RP-LC retention time of 707 s.

`CCc1ccc(NC(=O)CSc2cc(N3CCCCC3)ncn2)cc1` gave an RP-LC retention time of 974 s.

Work on `COc1ccc(N2CC(c3noc(-c4cccc(OC)c4)n3)CC2=O)cc1` (configuration not stated) yielded an RP-LC retention time of 922 s.

`O=C(NCc1ccc(F)cc1Cl)C1CCN(c2cncnc2N2CCCC2)CC1` gave an RP-LC retention time of 665 s.

`COc1ccc(NC(=O)C2CCN(S(=O)(=O)c3cn(C(C)C)cn3)CC2)cc1` gave an RP-LC retention time of 711 s.

In the case of `Cc1ccc(NC(=O)COc2cc(C)nc(N3CCN(c4ccccc4)CC3)n2)c(C)c1`, the RP-LC retention time is reported as 914 s.

In the case of `CC1CCC2(CC1)NC(=O)N(CC(=O)NCc1ccccc1)C2=O` (configuration not stated), the RP-LC retention time is reported as 784 s.

Work on `Cn1c(C(=O)Nc2cccc(Cl)c2)cc2c(=O)oc3ccccc3c21` yielded an RP-LC retention time of 1050 s.

`COc1ccccc1-c1cnn2c(N3CCN(c4cccc(C)n4)CC3)cc(C)nc12` showed an RP-LC retention time of 638 s.

`CCN1CCN(C(=O)C2CCN(C3=NS(=O)(=O)C(c4ccc(C)c(C)c4)=C3C)CC2)CC1` gave an RP-LC retention time of 598 s.

`O=C(Nc1cccc(-c2nnc3n2CCCC3)c1)c1ccc2ccccc2n1` gave an RP-LC retention time of 779 s.

`O=C(c1ccc(F)cc1)N1CCC(n2nc(-c3ccsc3)ccc2=O)CC1` showed an RP-LC retention time of 816 s.

For `CCN1C(=O)C2(CCN(S(=O)(=O)c3ccc(CC(C)C)cc3)CC2)c2ccccc21`, the RP-LC retention time was 587 s.

`Cc1sc(-c2nc(C(C)C)cs2)cc1S(=O)(=O)Nc1ccccc1F` gave an RP-LC retention time of 1170 s.

`CCOc1ccc(CNC(=O)c2nnn(Cc3nc(-c4cccc(C)c4)oc3C)c2C)cc1` gave an RP-LC retention time of 1140 s.

`CC(C)n1c(CCNC(=O)c2ccc(Cl)cc2)nc2cccnc21` showed an RP-LC retention time of 704 s.

Compound `CCCCc1ccc(NC(=O)CSc2ccc(N3CCCC(C(=O)NC4CC4)C3)nn2)cc1` (configuration not stated) has an RP-LC retention time of 800 s.

Work on `Cc1cccc(NC(=O)COc2cc(C)nc(N3CCN(c4ccccc4)CC3)n2)c1` yielded an RP-LC retention time of 856 s.

For `Cc1cc(C)cc(NC(=O)C2CCCN2S(=O)(=O)c2cc3c(cc2C)NC(=O)CO3)c1` (configuration not stated), the RP-LC retention time was 815 s.

With `CCC(CC)NC(=O)C1Cn2cccc2C(=O)N1CC(C)C` (configuration not stated) the RP-LC retention time was 756 s.

With `COC[C@@H]1CN(Cc2ccc3[nH]ccc3c2)C[C@H]1c1nc(C)no1` the RP-LC retention time was 610 s.

With `O=C(CCc1nnc2ccc(NCc3ccco3)nn12)N1CCN(c2ccccn2)CC1` the RP-LC retention time was 569 s.

`CSc1cccc(NC(=O)Cn2nc3n(c2=O)CCCC3)c1` showed an RP-LC retention time of 669 s.

`Cc1cccc(-c2noc(C3CCCN3C(=O)Nc3ccccc3C)n2)c1` (configuration not stated) gave an RP-LC retention time of 1010 s.

For `O=C(NCC1COc2ccccc2O1)C(=O)c1c[nH]c2ccccc12` (configuration not stated), the RP-LC retention time was 920 s.

With `CC(Oc1ccccc1)C(=O)N1CCc2c(c(C(=O)NCc3ccc4c(c3)OCO4)nn2C)C1` (configuration not stated) the RP-LC retention time was 818 s.

For `Cc1cc(OCC(=O)NCc2ccc3c(c2)OCO3)nc(N2CCCCCC2)n1`, the RP-LC retention time was 594 s.

`Cc1nc2cc(-c3noc(Cc4ccc(F)cc4)n3)ccc2o1` showed an RP-LC retention time of 983 s.

In the case of `CC(C)CN1CCN(S(=O)(=O)c2cc(-c3nnc(C4CCCC4)o3)co2)CC1`, the RP-LC retention time is reported as 678 s.

In the case of `Cc1ccc(Cn2c(=O)n(CCNC(=O)Cc3ccsc3)c3ncccc32)cc1`, the RP-LC retention time is reported as 824 s.

With `Cc1cc(N2CCN(C(=O)COc3ccc(Cl)cc3)CC2)nc2nnc(C)n12` the RP-LC retention time was 637 s.

`CCn1cc2c3c(cccc31)CN(C(=O)Nc1ccc(OC)c(Cl)c1)CC2` showed an RP-LC retention time of 977 s.

In the case of `Cc1nc(-c2cnccn2)nc2c1CCC(=O)N2CC1CCCO1` (configuration not stated), the RP-LC retention time is reported as 626 s.

Compound `O=C(c1ccoc1)N1CCCC1c1nc(-c2ccc(F)cc2F)no1` (configuration not stated) has an RP-LC retention time of 869 s.

Compound `O=C(CSc1nc2ncccc2[nH]1)NC1CCCC1` has an RP-LC retention time of 585 s.

Compound `COc1ccc(-c2noc(CN3CCN(c4ccc(OC)cc4)CC3)n2)cc1` has an RP-LC retention time of 809 s.

For `c1ccc(-c2nnc(Cc3ccc4c(c3)OCO4)o2)cc1`, the RP-LC retention time was 894 s.

For `COc1cccc(-c2noc3ncnc(N4CCN(c5ccccn5)CC4)c23)c1`, the RP-LC retention time was 660 s.

Work on `CSc1ccc(CNC(=O)C2CCCN(c3nn4c(=O)c5c(nc4s3)CCCC5)C2)cc1` (configuration not stated) yielded an RP-LC retention time of 792 s.

For `Cc1noc(CNC(=O)C2CCN(C(=O)CSc3nc4ccccc4s3)CC2)n1`, the RP-LC retention time was 665 s.

Reference: the METLIN SMRT retention time set (Domingo-Almenara et al. 2019)
